Reference: patent US5753516A, “Screening method for ligands of the EBI-1 receptor” (priority 1995, dated 1998)
pKd: −log10 of the molar value.

Key:
LAZ 388 cells = test: Migration (chemotaxis) of LAZ 388 EBV-transformed B cells; type: cell-based, human; conditions: LAZ 388, peptide 100 nM; spontaneous locomotion 1938
LAZ 221 cells = test: Migration (chemotaxis) of LAZ 221 pre-B ALL cells; type: cell-based, human; conditions: LAZ 221, peptide 100 nM; spontaneous locomotion 1886
human T cells [1] = conditions: Heagy et al., 1990; cited from earlier work
NALM 6 cells = test: Migration (chemotaxis) of NALM 6 pre-B ALL cells; type: cell-based, human; conditions: for cell migration (cell counts): NALM 6, peptide 100 nM, spontaneous locomotion 2190; for concentration inducing migration: NALM 6 and LAZ 221; for effect on migration of pre-B ALL cells: NALM 6 and LAZ 221 cells
Jurkat cells [2] = test system: Jurkat cells
COS (Vector Control) = test: cAMP accumulation in COS cells (vector control); type: cell-based, monkey; conditions: COS (Vector Control); MET-ENK 0.01 nM, naloxone 10 μM, forskolin 0.1 μM; controls 40.2 and 38.8
EBI1 = biological target: T1, EBI1 (Homo sapiens, UniProt P32248)
T1 sequence (P32248 25-378): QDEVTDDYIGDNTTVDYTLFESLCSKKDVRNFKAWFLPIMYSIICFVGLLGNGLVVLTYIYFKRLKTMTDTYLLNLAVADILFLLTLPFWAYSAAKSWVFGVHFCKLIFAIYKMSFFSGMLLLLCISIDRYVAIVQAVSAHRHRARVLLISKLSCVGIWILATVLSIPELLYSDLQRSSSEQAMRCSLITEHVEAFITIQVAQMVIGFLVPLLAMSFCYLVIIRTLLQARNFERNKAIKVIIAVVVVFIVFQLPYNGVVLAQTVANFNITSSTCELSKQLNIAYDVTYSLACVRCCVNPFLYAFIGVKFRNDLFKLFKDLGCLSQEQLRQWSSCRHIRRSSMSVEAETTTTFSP

human T cells [3] = test: Migration of human peripheral blood T cells; type: cell-based
[4] = test system: lymphocytes and macrophages; conditions: animals; cited from earlier work
leukocytes = conditions: Lu et al., 1960; cited from earlier work
Jurkat cells [5] = test: [Ca^2+ ]i response of Jurkat cells (Indo-1, flow cytometry); type: cell-based, human
Description: FIG. 14, Panel A and B. Methionine enkephalin and opiate receptor agonists selective for […] stimulate transmembrane signaling in Jurkat cells. Cells were labeled with Indo-1, washed twice in serum-free medium and held at 4° C. until analyzed. Indo-1 fluorescence was measured using flow cytometry as previously described (Heagy et al., 1992; Ledbetter et al., 1987; Chang et al., 1989; Rabinovitch et al., 1986). The fluorescence for nonstimulated cells (measured in medium, alone) was arbitrarily set at 1.0. Data are presented as per cent increase in the response [(r-baseline) x 100%]. Baseline [Ca^2+ ]i value measured for Jurkat cells (n=4) was 80±40 nM. Baseline Panel A, Jurkat cell response to MET-ENK (0.1 nM, 10 nM and 1 μM) and to the d- selective agonist Dermenkephalin (10 nM). Panel B, Jurkat cell response to the d- selective agonist (D-Pen ^2,5, p Cl-Phe^4)-ENK (0.1 nM. 10 nM. 1 μM).
The inventors (Heagy et al., 1992) have previously shown that when applied to NALM 6 cells the κ-1 agonist U69,953 stimulates a rapid increase in [Ca^2+ ]i. […] In order to determine whether the sites the inventors have identified using the δ-selective agonists also elicit Ca^2+ responses the inventors measured the effects of opioid peptides and δ-selective agonists on the calcium response. […] These studies provide evidence that Jurkat cells have functional δ opiate receptor sites which stimulate transmembrane signaling via rapid increases in [Ca^2+ ]i.

[6] = biological target: EBI1, novel lymphocyte R7G opioid binding protein (human); test: radioligand filtration assay on membranes of EBI1-transfected COS cells; nonspecific binding with 50 µM naloxone
[7] = biological target: NALM 6 cells (pre-B acute lymphoblastic leukemia cell line), enkephalin/opiate binding sites not defined as a molecule; test: flow cytometry of MET-ENK-FITC on NALM 6 cells, two-site model, low affinity site
[8] = biological target: Jurkat cells (T cell leukemia cell line), enkephalin/opiate binding sites not defined as a molecule; test: flow cytometry of MET-ENK-FITC on Jurkat cells, two-site model, low affinity site
[9] = biological target: NALM 6 cells (pre-B acute lymphoblastic leukemia cell line), enkephalin/opiate binding sites not defined as a molecule; test: flow cytometry of MET-ENK-FITC on NALM 6 cells, two-site model, high affinity site
[10] = biological target: Jurkat cells (T cell leukemia cell line), enkephalin/opiate binding sites not defined as a molecule; test: flow cytometry of MET-ENK-FITC on Jurkat cells, two-site model, high affinity site

## CC(C)C[C@@H](NC(=O)[C@H](Cc1ccccc1)NC(=O)CNC(=O)[C@@H](C)NC(=O)[C@@H](N)Cc1ccc(O)cc1)C(=O)O [DADLE, [D-Ala^2,D-Leu5]-enkephalin]
LAZ 388 cells
  cell migration (cell counts): 2283 cell counts
LAZ 221 cells
  cell migration (cell counts): 4405 cell counts
Human T cells [1]
  human T cell migration: potent stimulants for the migration of isolated human T cells
NALM 6 cells
  cell migration (cell counts): 6240 cell counts
  concentration inducing migration: ≤ 10^-10 M
  effect on migration of pre-B ALL cells: enhanced, albeit modestly, the migration of NALM 6 and LAZ 221 cells
Jurkat cells [2]
  specific binding, % of total: 50-60%

## C[C@@H](NC(=O)[C@@H](N)Cc1ccc(O)cc1)C(=O)NCC(=O)N(C)[C@@H](Cc1ccccc1)C(=O)NCCO [DAMGO, [D-Ala^2, Me-Phe^4, Gly(ol)^5]-enkephalin]
LAZ 388 cells
  cell migration (cell counts): 2043 cell counts
LAZ 221 cells
  cell migration (cell counts): 4602 cell counts
Human T cells [1]
  human T cell migration: potent stimulants for the migration of isolated human T cells
NALM 6 cells
  cell migration (cell counts): 5070 cell counts
  concentration inducing migration: ≤ 10^-10 M
  effect on migration of pre-B ALL cells: enhanced, albeit modestly, the migration of NALM 6 and LAZ 221 cells

## CSCC[C@H](NC=O)C(=O)N[C@@H](CC(C)C)C(=O)N[C@@H](Cc1ccccc1)C(=O)O [FMLP]
LAZ 388 cells
  cell migration (cell counts): 1914 cell counts
LAZ 221 cells
  cell migration (cell counts): 2906 cell counts
NALM 6 cells
  cell migration (cell counts): 3198 cell counts
  effect on migration of pre-B ALL cells: had no effect on the migration of the pre-B ALL cells

## C=C[C@@]1(C)CC(=O)[C@]2(O)[C@@]3(C)[C@@H](O)CCC(C)(C)[C@@H]3[C@H](O)[C@H](OC(C)=O)[C@@]2(C)O1 [Forskolin]
COS (Vector Control)
  cAMP: 130.5 fmoles/cell × 10^3
EBI1
  cAMP: 234.8 fmoles/cell × 10^3

## CC(C)C[C@H](NC(=O)[C@H](Cc1ccccc1)NC(=O)CNC(=O)CNC(=O)[C@@H](N)Cc1ccc(O)cc1)C(=O)O [LEU-ENK]
Human T cells [3]
  human lymphocyte / T cell migration: stimulate human lymphocyte migration
Human T cells [3]; human peripheral blood T cells
  lowest concentration at which T cell migration was detectable: 0.1 pM

## CN1CC[C@]23c4c5ccc(O)c4O[C@H]2[C@@H](O)C=C[C@H]3[C@H]1C5 [morphine]
[4]
  lymphocyte trafficking in vivo: enhance lymphocyte trafficking
leukocytes
  leukocyte changes in rabbits: caused a leukocytosis in parallel with a depletion of lymphocyte blasts and other hematopoietic precursors in the bone marrow

## (D-Pen^2,5, p-Cl-Phe^4)-ENK
Jurkat cells [5]
  [Ca^2+ ]i response: stimulated the Ca^2+ response
  concentration eliciting [Ca^2+ ]i response: 10^-8 to 10^-6 M

## DPDPE ([D-Pen2,5]enkephalin), delta-selective opiate receptor agonist (peptide)
[6]
  pKd: 9.70

## fluorescein derivative of methionine enkephalin (MET-ENK-FITC) (peptide)
[7]
  pKd: 6.50
[8]
  pKd: 6.74
[9]
  pKd: 9.00
[10]
  pKd: 8.87
